Source: patent US7723289B2, “PIF tetrapeptides” (BioIncept, LLC, priority 2003, dated 2010)

Assays:
mouse splenocytes = assay: FITC peptide binding to mouse splenocytes with 100 fold excess unlabeled peptide; set-up: species or system C57Bl/6 mice; details: 300 nM FITC peptide, 100 fold excess unlabeled PIF
Description: Virgin female C57Bl/6 mice were sacrificed and spleen cells were isolated and placed in AIM V culture media with 300 nM FITC PIF-1 (15)+/−100 fold excess unlabeled PIF. Following incubation cells were placed in a flow cytometry and the percentage of cells stained examined.
Splenocytes from virgin female C57BL/6 mice were stained with 300 nM of PIF-1-FITC or scrPIF-1-FITC. Filled histograms indicated PIF-1-FITC or scrPIF-1-FITC alone. Empty histograms represent PIF-1-FITC or scrPIF-1-FITC staining in the presence of 100-fold excess of corresponding unlabeled peptide. Histograms represent both monocytes and lymphocytes according to scatter gating.
Cells were evaluated using flow cytometry determining labeled cells population Filled histograms indicate PIF-FITC or scrPIF-FITC alone. […] Empty histograms represent PIF-FITC or scrPIF-FITC staining in the presence of 100-fold excess of corresponding unlabeled peptide. Histograms represent both monocytes and lymphocytes according to scatter gating.

PBMC = assay: FITC-labeled PIF binding to PBMC subpopulations (flow cytometry); set-up: species or system human; details: PBMC within 24 hrs of PHA activation
Description: Expression of PIF-1(15) (SEQ ID NO:1), receptor following PHA induced PBMC proliferation CD-4 T cells; CD-8 T cells; NK cell and B cells (unstimulated-top); (PHA stimulated-bottom). Flow cytometry analysis of PBMC following exposure to FITC sPIF-1(15) (SEQ ID NO:13) % expression was determined in PBMC subtypes before and after exposure to 1 ug/ml PHA for 24 hours.
Human PBMC were isolated by the Ficoll method. FITC-labeled nPIF-115 (SEQ ID NO: 1) and (FITC)-labeled scrPIF-1 (SEQ ID NO:5) and match-size irrelevant peptide (FITC)-labeled negative controls negPIF-1(15) (SEQ ID NO:11), were dissolved in PBS at concentrations ranging from 0.75 to 48.19 μM, and were incubated with 500,000 lymphocytes for 1 h at room temperature. The cells were washed 6 times with PBS and resuspended in 500 μl of the same buffer. T-cells and monocytes identification was performed in independent experiments by incubation with anti-CD3 and anti-CD14 antibody-phycoerithryn (PE) labeled. nPIF-115 (SEQ ID NO: 1) binding to PBMC was determined by flow cytometry. In addition, rosettes formed by T cell-platelets were detected by flow cytometry using anti-CD3 antibody-PE and anti-CD41a antibody-FITC (all antibodies were from Pharmingen Inc.).
Using flow cytometry fluoroscein-labeled sPIF-115 (SEQ ID NO: 13) binding to immune cells was examined on resting PBMC.

[1] = Whole body distribution of FITC labeled PIF-1 after IV and IP injection; format: in vivo, rats
Description: In a further experiment, PIF presence in the spleen was confirmed in vivo, In addition, PIF presence in the cecum, bone marrow and uterus was determined. Adult female rats were injected FITC labeled PIF-1 500 nM in 100 ul volume IV and IP (Eric Solon QPS Inc). 5 and 30 minutes later rats were sacrificed and snap frozen in hexane embedded in frozen media. Whole body 40 um cryo sectioned were obtained and scaaned with a 9140 Typhoon bioimage scanner at a FITC excitation length.

dissociation of FITC PIF from the PIF receptor by unlabeled peptide (mouse splenocytes): > 90%
Substance: FITC sPIF-1(15): sPIF-1(15) labeled on N-terminus with fluorescein isothyocyanate via b-alanine spacer
B cells positive for fluorescent PIF binding (PBMC): > 90%
T lymphocytes positive for fluorescent PIF binding (PBMC): 60-80%
IP pick up ([1]; 500 nM in 100 ul IP, 5 and 30 minutes): slower with major collection in the cecum
organs with specific pick up ([1]; 500 nM in 100 ul IV, 5 and 30 minutes): spleen, bone marrow and uterus
elimination ([1]; IV injected, FIG. 19): rapid elimination by the kidney
